# Data published in patent publication US20120308608A1 (priority 2011, published 2012).
# “Also recorded” adds a separate entry of the source.
# Legend:
# [1] = test system: IFN beta promoter (MDCK-IFNb-Luc); type: cell-based, canine
# [2] = test system: IFN production by MDCK cells; type: cell-based, canine
# [3] = test system: Influenza A/PR/8/34 virus; type: cell-based
# Influenza A/WSN/33 virus = type: cell-based
# [4] = test system: Influenza A/Vietnam/1203/2004 (H5N1) virus; type: cell-based; details: A549 cells; multiplicity of 0.01 pfu; 2 days
# [5] = target: influenza virus replication machinery (PB1, PB2, PA, nucleocapsid protein of A/WSN/33) (Influenza A virus, UniProt P03427+P03430+P15659+P15682); assay: Influenza virus mini-genome assay; type: cell-based, influenza virus strains A/WSN/33; details: A549 cells; increasing ASN2 concentrations
Structure (SMILES),induction of IFNb-luc reporter expression [1],"IFN production (IFN bioassay, VSV-GFP growth) [2]",A/PR/8/34 virus replication (HA titer) [3],A/WSN/33 virus replication (HA titer) (Influenza A/WSN/33 virus),A/Vietnam/1203/2004 (H5N1) virus replication [4],mini-genome luciferase activity [5]
N=C(N/N=C1/C(=O)N(Cc2ccccc2)c2ccccc21)SCC(=O)Nc1ccccc1 [ASN2],requires virus infection in order to induce IFN in the reporter assay; also recorded: depends on influenza A/PR/8/34 virus infection to induce IFN,able to induce biologically relevant levels of IFN once the Compound-treated cells are also infected with A/PR/8/34; also recorded: able to induce the production of IFN only if the treated cells are infected with influenza A/PR/8/34 virus,able to attenuate both A/PR/8/34 and A/WSN/33 virus replication in a dose-dependent manner; also recorded: attenuated,able to attenuate both A/PR/8/34 and A/WSN/33 virus replication in a dose-dependent manner; also recorded: attenuated,antiviral activity; also recorded: attenuated,decreased with increasing concentrations; also recorded: inhibited
NS(=O)(=O)c1ccc2nc3c(nc2c1)-c1cccc2cccc-3c12 [ENA51],induces IFN independent of virus,–,–,–,–,–
